Source: publication PMC6751662, “Pharmacological and functional similarities of the human neuropeptide Y system in C. elegans challenges phylogenetic views on the FLP/NPR system” (Cell Communication and Signaling : CCS, 2019)
Where two headings read alike, the source gives them in different places. Ends that are not written are not given here.

Key:
[1] = molecular target: T1, NPR-4b (Caenorhabditis elegans, UniProt A0A078BTK0); test: cAMP reporter gene assay, Gi/o (inhibition of forskolin-induced cAMP), NPR-4b; format: cell-based, C. elegans; conditions: for cAMP, x-fold of forskolin (mean), NPR-4b: 1 µM forskolin set to 1.00; for cAMP, x-fold of forskolin (mean), NPR-4b / Gi (Gs) [x-fold of forskolin], NPR-4b, mean / Emax: transiently transfected HEK293 cells; for cAMP, x-fold of forskolin (mean), NPR-4b / Gi (Gs) [x-fold of forskolin], NPR-4b, mean: mean of at least three independent experiments; for cAMP assay Gi, NPR-4b: 4 h, lower = higher Gi/o activity, transfected HEK293, CRE-luciferase, mean of >=3 independent experiments; for Gi (Gs) [x-fold of forskolin], NPR-4b, mean: inhibition of cAMP production induced by 1 µM forskolin (set to 1.00); for Emax: NPR-4b, forskolin (1 µM) set to 1.00, lower values correspond to high Gi/o activity, mean ± SEM of at least three independent experiments, SEM
T1 sequence (A0A078BTK0 1-376): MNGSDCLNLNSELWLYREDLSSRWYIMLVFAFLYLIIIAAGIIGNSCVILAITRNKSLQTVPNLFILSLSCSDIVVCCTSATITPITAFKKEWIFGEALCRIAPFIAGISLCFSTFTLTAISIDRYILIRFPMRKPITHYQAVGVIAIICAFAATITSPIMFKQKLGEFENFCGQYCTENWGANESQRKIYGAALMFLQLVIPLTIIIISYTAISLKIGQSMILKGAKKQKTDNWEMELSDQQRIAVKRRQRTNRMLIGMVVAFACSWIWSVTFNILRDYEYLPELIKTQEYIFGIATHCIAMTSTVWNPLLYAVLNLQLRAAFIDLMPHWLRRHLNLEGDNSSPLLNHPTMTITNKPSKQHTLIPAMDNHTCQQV
Procedure: (§1) Activation of Gs and Gi/o was assessed with a cAMP reporter gene assay. HEK293 cells grown to 70–80% confluency in 6-well plates were transiently co-transfected with vectors encoding the receptor and the cAMP reporter gene plasmid pGL4.29 [luc2P/CRE/Hygro] (Promega; 4 μg total, 1:1 ratio) using Metafectene Pro (3 μl/μg DNA; Biontex) following the manufacturer’s instructions. 16 h post transfection, the cells were seeded into white 384-well plates at a density of 20,000 cells/well. On the next day, the medium was removed and the cells were stimulated with 20 μl of peptide solution (or forskolin as positive control) in serum-free DMEM for 4 h. For measuring Gi/o activity, the peptide solutions additionally contained 1 μM forskolin to elevate cellular cAMP levels. After incubation, the luciferase substrate OneGlo in lysis buffer (Promega) was added and the luminescence was measured in a microplate reader Tecan Spark (Tecan).
(§2) For in vitro activation, data is presented as mean ± SEM of at least three independent experiments conducted in technical triplicate. […] For the C. elegans NPRs, we considered the strongest response elicited by any of the peptides downstream of a particular receptor as the receptor’s maximal signal. This may or may not be the biological maximum that can be reached by the ‘true’ endogenous agonist. For the human receptors, the response to the established endogenous agonist reflected the maximal signal.

[2] = molecular target: T2, NPR-11 (Caenorhabditis elegans, UniProt Q18179); test: cAMP reporter gene assay, Gi/o (inhibition of forskolin-induced cAMP), NPR-11; format: cell-based, C. elegans; conditions: for cAMP, x-fold of forskolin (mean), NPR-11: 1 µM forskolin set to 1.00; for cAMP, x-fold of forskolin (mean), NPR-11 / Gi (Gs) [x-fold of forskolin], NPR-11, mean: mean of at least three independent experiments; for cAMP assay Gi, NPR-11: 4 h, lower = higher Gi/o activity, transfected HEK293, CRE-luciferase, mean of >=3 independent experiments; for Gi (Gs) [x-fold of forskolin], NPR-11, mean: inhibition of cAMP production induced by 1 µM forskolin (set to 1.00); for Emax: HEK293, read-out: Emax ± SEM [%]
T2 construct: expressed in transfected cells; host or cells: HEK293, transient
T2 sequence (Q18179 1-402): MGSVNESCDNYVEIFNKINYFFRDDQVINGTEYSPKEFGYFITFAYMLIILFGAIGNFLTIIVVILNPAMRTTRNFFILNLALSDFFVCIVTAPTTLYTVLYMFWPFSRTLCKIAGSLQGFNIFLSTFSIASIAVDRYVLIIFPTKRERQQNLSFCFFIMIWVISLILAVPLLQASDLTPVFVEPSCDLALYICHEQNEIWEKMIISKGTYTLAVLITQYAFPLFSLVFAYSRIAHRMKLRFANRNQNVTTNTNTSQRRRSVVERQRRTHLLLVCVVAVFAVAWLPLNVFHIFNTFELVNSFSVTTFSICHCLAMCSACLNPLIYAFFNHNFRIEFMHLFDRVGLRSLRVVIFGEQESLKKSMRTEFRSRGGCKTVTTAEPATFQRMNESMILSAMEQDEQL
Procedure: as §1, with “(Tecan). Data were analyzed with GraphPad Prism 5.03 and are shown as fold of basal or fold of forskolin in case of Gαi/o activity.” for “(Tecan).”
as §2

[3] = molecular target: T3, NPFF1R (Homo sapiens, UniProt Q9GZQ6); test: IP accumulation assay, chimeric GαΔ6qi4myr, NPFF1R; format: cell-based; conditions: chimeric GαΔ6qi4myr co-transfected, transiently transfected HEK293 cells, mean of at least three independent experiments
T3 construct: expressed in transfected cells; host or cells: HEK293, transient
Procedure: (§3) For measuring IP accumulation, HEK293 cells grown to 70–80% confluency in 6-well plates were transiently co-transfected using Metafectene Pro (2.5 μl/μg DNA; Biontex) with plasmids containing receptor and/or mock (empty pcDNA3.1) (for endogenous Gq-coupling) using 4 μg total DNA in a ratio of 3:1 following the manufacturer’s instructions. For testing Gα16- and GαΔ6qi4myr-coupling, plasmids encoding the corresponding Gα protein were co-transfected instead of mock. Gα16 is naturally promiscuous and stimulates the phospholipase C (PLC) pathway leading to IP production, while the exchange of the C-terminal four amino acids of Gαq for the corresponding residues of Gαi1 in the chimeric GαΔ6qi4myr confers the ability to couple to Gi/o protein-preferring receptors but still stimulate PLC, thus specifically redirecting downstream cellular signaling. 16 h post transfection, the cells were seeded into white 384-well plates at a density of 20,000 cells/well. Media was removed 24 h later and the cells were incubated with the indicated concentration of peptides for 1 h in HBSS + 20 mM LiCl. IP accumulation was measured with the HTRF-based IP-One Gq kit (Cisbio) on a microplate reader (Tecan Spark).
as §2

[4] = molecular target: T4, NPFF2R (Homo sapiens, UniProt Q9Y5X5); test: IP accumulation assay, chimeric GαΔ6qi4myr, NPFF2R; format: cell-based; conditions: chimeric GαΔ6qi4myr co-transfected, transiently transfected HEK293 cells, mean of at least three independent experiments
T4 construct: expressed in transfected cells; host or cells: HEK293, transient
Procedure: as §3, §2

[5] = 0.1 µM peptide, transiently transfected HEK293 cells
[6] = 10 µM peptide, transiently transfected HEK293 cells
[7] = 0.1 µM peptide + 1 µM forskolin (set to 1.00)
[8] = 10 µM peptide + 1 µM forskolin (set to 1.00)

T3 sequence (Q9GZQ6 whole entry): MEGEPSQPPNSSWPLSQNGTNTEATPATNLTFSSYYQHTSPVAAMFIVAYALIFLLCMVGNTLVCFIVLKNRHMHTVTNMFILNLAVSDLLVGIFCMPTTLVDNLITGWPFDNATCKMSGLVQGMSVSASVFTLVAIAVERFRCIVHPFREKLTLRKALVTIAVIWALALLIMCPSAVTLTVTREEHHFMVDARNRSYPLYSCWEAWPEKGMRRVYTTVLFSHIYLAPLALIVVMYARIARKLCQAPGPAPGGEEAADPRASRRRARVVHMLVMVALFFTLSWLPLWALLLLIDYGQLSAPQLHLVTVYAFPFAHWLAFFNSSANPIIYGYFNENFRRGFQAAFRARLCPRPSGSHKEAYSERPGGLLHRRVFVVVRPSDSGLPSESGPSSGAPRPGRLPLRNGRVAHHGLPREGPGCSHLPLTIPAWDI
T4 sequence (Q9Y5X5 103-522): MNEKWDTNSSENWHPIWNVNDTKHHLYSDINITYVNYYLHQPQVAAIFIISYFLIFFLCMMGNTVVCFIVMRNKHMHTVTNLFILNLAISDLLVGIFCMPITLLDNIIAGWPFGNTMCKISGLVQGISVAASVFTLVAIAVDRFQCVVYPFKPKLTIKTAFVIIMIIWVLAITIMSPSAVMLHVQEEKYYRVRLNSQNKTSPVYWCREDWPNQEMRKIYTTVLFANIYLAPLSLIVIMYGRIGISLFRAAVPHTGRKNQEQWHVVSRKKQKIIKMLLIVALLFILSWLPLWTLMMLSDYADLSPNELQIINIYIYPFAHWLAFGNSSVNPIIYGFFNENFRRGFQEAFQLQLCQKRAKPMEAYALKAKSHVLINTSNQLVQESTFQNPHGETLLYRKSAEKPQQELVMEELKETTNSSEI

| Substance | cAMP, x-fold of forskolin (mean), NPR-4b ([1]; 0.1 µM peptide) | cAMP, x-fold of forskolin (mean), NPR-4b ([1]; 10 µM peptide) | cAMP, x-fold of forskolin (mean), NPR-11 [2, 5] | cAMP, x-fold of forskolin (mean), NPR-11 [2, 6] | IP accumulation, x-fold of basal (mean), NPFF1R ([3]; 0.1 µM peptide) | IP accumulation, x-fold of basal (mean), NPFF1R ([3]; 10 µM peptide) | IP accumulation, x-fold of basal (mean), NPFF2R ([4]; 0.1 µM peptide) | IP accumulation, x-fold of basal (mean), NPFF2R ([4]; 10 µM peptide) | other results |
| --- | --- | --- | --- | --- | --- | --- | --- | --- | --- |
| AGSDPNFLRF-NH2 [FLP-1-2, C. elegans FMRFamide-like peptide, C-terminally amidated, synthesized by SPPS] | 0.81 x-fold of forskolin | 0.42 x-fold of forskolin | 0.92 x-fold of forskolin | 0.72 x-fold of forskolin | 2.11 x-fold of basal | 3.54 x-fold of basal | 1.10 x-fold of basal | 2.86 x-fold of basal |  |
| APKPKFIRF-NH2 [FLP-5-1, C. elegans FMRFamide-like peptide, C-terminally amidated, synthesized by SPPS] | 0.73 x-fold of forskolin | 0.36 x-fold of forskolin | 0.94 x-fold of forskolin | 0.48 x-fold of forskolin | 1.48 x-fold of basal | 4.07 x-fold of basal | 0.88 x-fold of basal | 2.44 x-fold of basal | cAMP assay Gi, NPR-4b [1, 7]: 0.75 x-fold of forskolin; cAMP assay Gi, NPR-4b [1, 8]: 0.40 x-fold of forskolin; cAMP assay Gi, NPR-11 [2, 7]: 0.94 x-fold of forskolin; cAMP assay Gi, NPR-11 [2, 8]: 0.51 x-fold of forskolin |
| APLEGFEDMSGFLRTIDGIQKPRF-NH2 [FLP-33, NPY-like C. elegans FLP with C-terminal RxRF/Ya signature] | 0.85 x-fold of forskolin | 0.79 x-fold of forskolin | 0.77 x-fold of forskolin | 0.21 x-fold of forskolin |  |  |  |  | Emax ± SEM [%] ([2]; NPR-11, forskolin (1 µM) set to 1.00, lower values correspond to high Gi/o activity, transiently transfected HEK293 cells, mean ± SEM of at least three independent experiments, SEM): -0.57 ± 0.06% |
| APLEPVYPGDNATPEQMAQYAADLRRYINMLTRPRY-NH2 [PP, human pancreatic polypeptide, reference compound] | 1.05 x-fold of forskolin | 1.14 x-fold of forskolin | 0.37 x-fold of forskolin | 0.14 x-fold of forskolin | 0.75 x-fold of basal | 0.75 x-fold of basal | 0.95 x-fold of basal | 1.44 x-fold of basal |  |
| ASPSFIRF-NH2 [FLP-4-2, C. elegans FMRFamide-like peptide, C-terminally amidated, synthesized by SPPS] | 0.52 x-fold of forskolin | 0.19 x-fold of forskolin | 0.89 x-fold of forskolin | 0.83 x-fold of forskolin | 1.86 x-fold of basal | 3.68 x-fold of basal | 1.07 x-fold of basal | 2.36 x-fold of basal |  |
| EASAFGDIIGELKGKGLGGRMRF-NH2 [FLP-27, NPY-like C. elegans FLP with C-terminal RxRF/Ya signature] | 1.07 x-fold of forskolin | 0.57 x-fold of forskolin | 0.71 x-fold of forskolin | 0.20 x-fold of forskolin |  |  |  |  |  |
| GLGPRPLAF-NH2 [[R8A]FLP-21, R8A control peptide of FLP-21, penultimate arginine exchanged for an alanine] |  |  |  |  |  |  |  |  | Gi (Gs) [x-fold of forskolin], NPR-4b, mean ([1]; 0.1 µM peptide): 0.95 x-fold of forskolin; Gi (Gs) [x-fold of forskolin], NPR-4b, mean ([1]; 10 µM peptide): 0.99 x-fold of forskolin; Gi (Gs) [x-fold of forskolin], NPR-11, mean [2, 5]: 0.87 x-fold of forskolin; Gi (Gs) [x-fold of forskolin], NPR-11, mean [2, 6]: 0.67 x-fold of forskolin |
| GLGPRPLRF-NH2 [FLP-21] |  |  |  |  |  |  |  |  | EC50 [1]: 358 nM; Emax [1]: -0.58 ± 0.07%; EC50 [2]: 102 nM; Emax ([2]; SEM): -0.72 ± 0.06% |
| NPENDTPFGTMRF-NH2 [FLP-3-4, C. elegans FMRFamide-like peptide, C-terminally amidated, synthesized by SPPS] | 0.67 x-fold of forskolin | 0.23 x-fold of forskolin | 0.80 x-fold of forskolin | 0.97 x-fold of forskolin | 1.29 x-fold of basal | 3.42 x-fold of basal | 1.58 x-fold of basal | 3.28 x-fold of basal |  |
| RGPSGPLAF-NH2 [[R8A]FLP-15-2] |  |  |  |  |  |  |  |  | Gi (Gs) [x-fold of forskolin], NPR-4b, mean ([1]; 0.1 µM peptide): 0.93 x-fold of forskolin; Gi (Gs) [x-fold of forskolin], NPR-4b, mean ([1]; 10 µM peptide): 0.97 x-fold of forskolin; Gi (Gs) [x-fold of forskolin], NPR-11, mean [2, 5]: 0.93 x-fold of forskolin; Gi (Gs) [x-fold of forskolin], NPR-11, mean [2, 6]: 0.53 x-fold of forskolin |
| RGPSGPLRF-NH2 [FLP-15-2] |  |  |  |  |  |  |  |  | Emax [1]: -0.65 ± 0.07%; EC50 [2]: 998 nM; Emax ([2]; SEM): -0.76 ± 0.11% |
| SEVPGVLRF-NH2 [FLP-18-5] |  |  |  |  |  |  |  |  | Emax [1]: -0.6 ± 0.05%; Emax ([2]; SEM): -0.16 ± 0.08%; EC50 ([2]; SEM): 79.4 nM |
